Measurements from US20140271604A1, “HDAC Inhibitor Polymorphic Forms and Methods of Use” (priority 2013, published 2014).

Key:
[1] = Concentration of saturated AR42 stock solutions (anti-solvent addition crystallization); type: physicochemical; details: equilibrated 24 hours, filtered
Method: Tables 3-5 illustrate anti-solvent addition crystallization experiments conducted on the indicated Form. In this example, saturated solutions of AR42 were prepared in the following solvents: Acetone, 2-Butanone, Methanol, Ethanol, Isopropanol, Acetonitrile, 1,4-Dioxane and Dimethylformamide. Excess AR42 was added to the solvent and the suspension equilibrated for 24 hours. After equilibration, the suspension was filtered through a […] filter to remove particulate solids.
An equal volume of anti-solvent selected from the following list was added to 300 μL of the saturated solutions of AR42: Toluene, Nitrobenzene, Nitromethane, Water, n-Heptane, Cyclohexane. An additional 300 μL of anti-solvent was added if no precipitation occurred. Aliquots of 300 μL of anti-solvent were added until precipitation occurred or the total volume was 1,200 μL of anti-solvent. The solution was allowed to incubate for 60 minutes at room temperature in between the addition of anti-solvent. If no precipitation occurred after the last addition of anti-solvents, samples were incubated for 24 hours at 4° C. Samples in which precipitation occurred were centrifuged for 10 minutes at 3000 rpm to separate the liquid from the solid. The liquid phase was removed and the solid phase dried and analyzed by XRPD. The solutions in which no precipitation occurred were placed under deep vacuum and dried to completion. Solids were collected and analysed by XRPD.

[2] = system: tumors; details: cited from earlier work
[3] = Solubility assessment experiments in organic solvents; details: Table 1
Method: Solubility assessment experiments were carried out in a variety of solvents followed by storage in a climate chamber for 48 to 72 hours at 40 degrees centigrade and 75% relative humidity.

For CC(C)[C@H](C(=O)Nc1ccc(C(=O)NO)cc1)c1ccccc1 [AR-42, (S)—N-hydroxy-4-(3-methyl-2-phenylbutanamido)benzamide], the “Concentration (mg/mL) of saturated stock solution” value (from here on “Concentration (mg/mL)”) ([1]; stock solvent Acetone) was 175.9 mg/mL, the “Concentration (mg/mL)” value ([1]; stock solvent Acetonitrile) was 13.5 mg/mL and the “Concentration (mg/mL)” value ([1]; stock solvent Butanone 2-) was 130.7 mg/mL. For the same molecule, the “Concentration (mg/mL)” value ([1]; stock solvent Dimethylformamide N,N-) was 335 mg/mL, the “Concentration (mg/mL)” value ([1]; stock solvent Dioxane, 1,4-) was 46.8 mg/mL and the “Concentration (mg/mL)” value ([1]; stock solvent Ethanol) was 134.1 mg/mL. For the same molecule, the “Concentration (mg/mL)” value ([1]; stock solvent Propanol 2-) was 227.8 mg/mL, the “Concentration (mg/mL)” value ([1]; stock solvent methanol) was 390.5 mg/mL and the “Inhibitory effect in tumors” value ([2]; breast, prostate, ovarian, blood cell, liver, and brain tumors) was “demonstrated inhibitory effect”. For the same molecule, the “Potency and activity compared to vorinostat (SAHA)” value ([2]; solid tumors and hematological malignancies) was “greater potency and activity”, the “Concentration” value ([3]; solvent Chloroform) was under 2000 µg/mL and the “Concentration” value ([3]; solvent Nitromethane) was 1000 µg/mL. For the same molecule, the “Concentration” value ([3]; solvent Toluene) was under 1000 µg/mL and the “Concentration” value ([3]; solvent Trifluoroethanol, 2,2,2-) was 7000 µg/mL.
